Results from patent publication EP0569777A2 (Bayer Corporation, priority 1992, dated 1993).
Where a SMILES comes first, the peptide text is derived from it. [ ]: non-standard residue; d: D form. The star is where a group is joined. Sta = CC(C)C[C@H](N)[C@@H](O)CC(=O)O; Isovaleryl = CC(C)CC(=O)*

How the values were obtained:
Format in all cases: biochemical
[1] = molecular target: T1, human cathepsin D (human liver, Cal Biochem, catalog # 219401) (Homo sapiens, UniProt P07339); assay: Immunoblot assay of holo-APP 695 degradation by purified cathepsin D
T1 sequence (P07339 with tags, fused parts or gaps): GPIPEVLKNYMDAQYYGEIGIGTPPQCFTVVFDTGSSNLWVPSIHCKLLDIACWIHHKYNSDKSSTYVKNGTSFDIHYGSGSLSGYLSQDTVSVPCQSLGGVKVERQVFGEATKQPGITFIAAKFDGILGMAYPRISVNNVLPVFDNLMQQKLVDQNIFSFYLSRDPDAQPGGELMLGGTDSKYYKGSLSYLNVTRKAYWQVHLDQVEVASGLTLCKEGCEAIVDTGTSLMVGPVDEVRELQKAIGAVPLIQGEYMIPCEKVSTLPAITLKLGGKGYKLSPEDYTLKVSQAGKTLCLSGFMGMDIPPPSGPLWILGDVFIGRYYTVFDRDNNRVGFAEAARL
Protocol: The numbers indicate the time (hr) after initiation of reactions. Reactions were initiated at 37°C by the addition of APP to achieve the following initial component concentrations: APP (82 nM), cathepsin D (9.2 ug/ml),in […] Mes buffer pH 6.5. Samples without pepstatin received the same amount of solvent (1.3 % v/v methanol). At t=0, 43, 84, 140 and 215 minutes aliquots (15 ul) were removed mixed with 7.5 ul of SDS-PAGE sample buffer and subject to immunoblot analysis using the Rabbit antiserum to the APP C-terminal domain. The 18 and 28 kDa reaction products are located with arrows.
Reactions were initiated at 37°C by APP addition thereby achieving the following initial component concentrations: APP (448 nM), cathepsin D (30 nM), and when included pepstatin A (97.2 µm) in 83 mM sodium acetate buffer pH 5.0. At the indicated time points, aliquots (20 ul), were removed mixed with 10 ul of 3X SDSPAGE sample buffer and subjected to immunoblot analysis using monoclonal antibody 286.8A (1/100). Reactions were performed in the absence (-) or presence (+) of pepstatin A (delivered in methanol). All samples received 2.7 % (v/v) methanol. Lanes 1 and 12 contained prestained Mr markers, Lanes 10 and 18 contained C-100 Mr marker. Lanes 11 and 13 contained APP incubated without cathepsin D for zero and 21hr respectively. The main product fragments are indicated with arrows. […]

[2] = molecular target: T1, human cathepsin D (human liver, Cal Biochem, catalog # 219401); assay: N-dansyl peptide (SEQ ID NO: 7) peptidase assay with HPLC detection, cathepsin D; details: pepstatin A 213 uM; cathepsin D 2.8 ug/ml, N-Dansyl-peptide 24 uM, pH 5.0, 37 C; Figure 10
Protocol: Reactions (30 ul) were initiated at 37 C by enzyme/inhibitor addition thereby achieving the following t=0 component concentrations: Cathepsin D (2.8 ug/ml), or P-2 enzyme from figure 6 (17.5 ug/ml), N-Dansyl-peptide (24 uM), captopril (0.3 mM) in a cocktail buffer comprising 130 mM in each of acetate, Mes and Tris pH 5.0. Samples contained either pepstatin A (213 uM in 3% v/v final methanol) or an equivalent final concentration of methanol only. At 0, 2, 4, 8 and 24hr, reactions were terminated by addition of 12 % (v/v) TFA (10 ul) and subject to HPLC analysis according to example 2 and 3.
• i) Incubations. […] Incubation with ion-exchange fractions was performed at 37°C for 24 hrs, after which reactions were terminated by adjusting to 3% (v/v) final in TFA. • ii) HPLC quantification of proteolytic products. HPLC analysis was performed using a Hewlet-Packard HP1090 complete with binary solvent delivery, heated column compartment, and auto injector.

[3] = tested on: human brain P-2 derived aprotinin binding pool Y protease (chymotryptic-like serine protease); assay: Immunoblot assay of APP degradation by the pool Y serine protease; details: 400 uM pepstatin in methanol; pool Y 14 ug/ml, APP 35 nM, Mes pH 6.5, 4 hr; Figure 18a
Protocol: Reactions were initiated at 37°C by enzyme addition to achieve the following initial component concentrations in a 16 ul volume: pool Y # 3-5 (14 ug/ml) after purification on a superdex 75 column, APP (35 nM), in 30 mM Mes buffer pH 6.5. Reactions were terminated by addition of 7.5 ul of 3X sample buffer. Immunoblots were developed using the rabbit antiserum to the APP C-terminal domain according to example 8. […] The following controls were also run: no inhibitor (lane 12), ethanol (lane 3), methanol (lane 5), pool Y only (lane 2), APP only at time zero (lane 13) and 4 hr (lane 14). Lanes 1 and 7 respectively show prestained Mr markers and the C-100 standard. Panel (b) 1.8 uM alpha-1-antichymotrypsin (lane 2), 156 uM TLCK (lane 3), 46 uM chymotrypsin inhibitor I (lane 4), 119 uM chymotrypsin inhibitor II (lane 5), 4 uM alpha-2-antiplasmin (lane 6), 51 uM alpha-1-antitrypsin (lane 7), 98 uM chymostatin administered in DMSO (lane 10), 153 uM methanolic TPCK (lane 12). Controls included: no inhibitor (lane 8), DMSO (lane 11), and methanol (lane 13). Pre-stained molecular weight markers and C-100 standards were applied to lanes 1 and 9 respectively. Incubation times of 4 and 2 hr were used in panels a) and b) respectively.
• i) Sub-cellular fractionation. This was performed essentially as described in Method 1, above. • ii) Solubilization. This was performed essentially as described in Method 1, above. • iii) Aprotinin-sepharose chromatography. Soluble (230 mg), P-2 (216 mg) or microsomal fraction (47 mg) described above was applied to a column of aprotinin sepharose (Sigma, catalog # 42268, 1.5 X 10 cm), previously equilibrated with 20 mM Tris HCl buffer pH 7.0. Once loaded the column was washed with equilibration buffer (100 ml), and then eluted with 60 ml of 50 mM sodium acetate buffer pH 5.0 containing 500 mM sodium chloride. The flow rate was 1.0 ml/min throughout. Eluted fractions (4 ml) were monitored at 280 nm, analysed using the Bradford protein assay, and examined for APP C-terminal processing activity as described in Example 8, using recombinant APP derived by expression in a baculo virus system. […] Active fractions from the purification of the P-2 fraction on aprotinin-sepharose were pooled, dialyzed against 50 mM Tris-HCl pH 7.5 and applied to a mono-Q column (HR 5/5), previously equilibrated with dialysis buffer. Once loaded, the column was eluted essentially as described in Method 1. above. Active fractions (2 ml), were monitored for A 280 nm, total protein (Bradford assay), and for their capacity for baculo virus derived APP C-terminal processing. […] Pools X, Y, and Z were each concentrated to either 2 ml (pool X and Y) or 3.6 ml (pool z) and separately applied to a Superdex 75 column (Pharmacia, Piscataway NJ.) previously equilibrated with 50 mM Tris-HCl pH 7.5, containing 150 mM sodium chloride. Once loaded, the column was eluted with equilibration buffer. Chromatography was performed at a flow rate of 1.0 ml/min throughout. Fractions (1 ml) were monitored for A 280 nm, total protein (Bradford assay) and for C-terminal processing of baculo expressed APP. The gel filtration was calibrated by chromatography of each of the following standard proteins: Thyroglobulin (670 kDa), bovine gamma globulin (158 kDa), ovalbumin (44 kDa), myoglobin (17.5 kDa) and vitamin B 12 (1.35 kDa).

## CC(C)CC(=O)N[C@H](C(=O)N[C@H](C(=O)N[C@@H](CC(C)C)[C@@H](O)CC(=O)N[C@@H](C)C(=O)N[C@@H](CC(C)C)[C@@H](O)CC(=O)O)C(C)C)C(C)C [pepstatin A] (Isovaleryl-VV[Sta]A[Sta]-OH)
[1]; 86 uM pepstatin A, APP 82 nM, cathepsin D 9.2 ug/ml, Mes buffer pH 6.5, 37°C, Figure 8
  Inhibition of cathepsin D catalysed APP cleavage (18 and 28 kDa C-terminal products): Inhibition
[1]; pepstatin A 97.2 µm, APP 448 nM, cathepsin D 30 nM, sodium acetate buffer pH 5.0, 37°C
  Inhibition of cathepsin D catalysed APP degradation (beta-amyloid immunoreactive bands, Figure 13): inhibited
[2]
  Inhibition of peptidase reaction catalyzed by Cathepsin D: inhibited
[3]
  Inhibitor sensitivity of the pool Y protease (APP degradation): unaffected
